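Test compounds were applied to cells in 96-well plates for 48 hours at 5 doses. TGI marks complete inhibition of growth.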
Legend:
Assay in all cases: DTP human tumour cell line panel, 48 h
[1] = test system: A549 NSCLC
[2] = test system: KM12 colon
[3] = test system: SF-539 CNS
[4] = test system: SW-620 colon
[5] = test system: RPMI-8226 leukemia
[6] = test system: K-562 leukemia
[7] = test system: 786-0 renal
[8] = test system: HOP-92 NSCLC
[9] = test system: MDA-MB-435
[10] = test system: OVCAR-5 ovarian
[11] = test system: HOP-62 NSCLC
[12] = test system: M14 melanoma
[13] = test system: MCF7 breast
[14] = test system: LOX IMVI melanoma
[15] = test system: UACC-257 melanoma
[16] = test system: SN12C renal
[17] = test system: A498 renal
[18] = test system: MDA-N
[19] = test system: NCI-H226 lung
[20] = test system: IGROV1 ovarian
[21] = test system: HS 578T breast
[22] = test system: NCI-H23 lung
[23] = test system: MOLT-4 leukemia
[24] = test system: SK-OV-3 ovarian
[25] = test system: UACC-62 melanoma
[26] = test system: RXF 393 renal
[27] = test system: SNB-75 CNS
[28] = test system: OVCAR-8 ovarian
[29] = test system: SK-MEL-28 melanoma
[30] = test system: ACHN renal
[31] = test system: BT-549 breast
[32] = test system: TK-10 renal
[33] = test system: UO-31 renal
[34] = test system: MDA-MB-231 breast
[35] = test system: OVCAR-3 ovarian
[36] = test system: NCI-H522 lung
[37] = test system: SF-295 CNS
[38] = test system: SNB-19 CNS
[39] = test system: PC-3 prostate
[40] = test system: SK-MEL-5 melanoma
[41] = test system: CAKI-1 renal
[42] = test system: MALME-3M melanoma
[43] = test system: HCT-116 colon
[44] = test system: NCI/ADR-RES ovarian
[45] = test system: EKVX NSCLC
[46] = test system: HCT-15 colon
[47] = test system: COLO 205 colon
[48] = test system: DU-145 prostate
[49] = test system: NCI-H460 lung
[50] = test system: HCC-2998 colon
[51] = test system: U251 CNS
[52] = test system: HT29 colon
[53] = test system: OVCAR-4 ovarian
[54] = test system: SF-268 CNS

Measured: TGI

O=C1C(=C/C=C2/SC(c3ccccc3)(c3ccccc3)c3ccccc32)C(=O)c2ccccc21
> 100 µM: all assays above

— PubChem BioAssay (NCI)
